Like-named read-outs stand apart in the source and are kept apart here.
Key:
Mu (μ) opioid receptor = Mu (μ) opioid receptor (Homo sapiens, UniProt P35372); assay: Filtration binding assay, mu opioid receptor (Damgo-H3 ligand)
[1] = biological target: human nociceptin receptor (ORL-1) (Homo sapiens, UniProt P41146); assay: nociceptin receptor (ORL-1) binding assay, 125I-Tyr14-nociceptin displacement
[2] = biological target: Kappa (κ) opioid receptor (Homo sapiens, UniProt P41145); assay: Filtration binding assay, kappa opioid receptor (U69593-H3 ligand)
Chain of Kappa (κ) opioid receptor (P41145 whole entry): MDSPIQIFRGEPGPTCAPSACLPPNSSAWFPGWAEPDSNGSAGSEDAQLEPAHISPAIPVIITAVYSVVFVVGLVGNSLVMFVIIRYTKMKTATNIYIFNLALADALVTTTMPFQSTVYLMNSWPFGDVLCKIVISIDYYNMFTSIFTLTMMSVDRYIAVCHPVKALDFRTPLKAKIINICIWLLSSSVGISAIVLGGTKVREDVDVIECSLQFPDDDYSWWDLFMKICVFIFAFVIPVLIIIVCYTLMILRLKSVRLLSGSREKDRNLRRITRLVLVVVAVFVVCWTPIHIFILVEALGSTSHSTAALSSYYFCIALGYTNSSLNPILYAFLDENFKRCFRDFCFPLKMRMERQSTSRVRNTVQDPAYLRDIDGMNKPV

ORL-1 receptor = biological target: T1, ORL-1 receptor (Homo sapiens, UniProt P41146); assay: ORL-1 functional assay (calcium flux, FLIPR); type: cell-based; design: key to Inhibitor: a notation of “no” indicates that the compound did not act as an inhibitor; a notation of “yes” indicates that the compound acted as an inhibitor; a notation of “undetermined” indicates that the data did not clearly show whether or not the compound acted as an antagonist; conditions: for Inhibitor: HEK-293 cells over-expressing ORL-1 receptor and Gqi5 G protein, calcium flux; for % Inhibition (100 nM Nociceptin): inhibition of calcium signal from 100 nM nociceptin, HEK-293 cells with ORL-1 and Gqi5
T1 construct: expressed in transfected cells; host or cells: HEK-293 over-expressing ORL-1 and Gqi5
T1 sequence (P41146 whole entry): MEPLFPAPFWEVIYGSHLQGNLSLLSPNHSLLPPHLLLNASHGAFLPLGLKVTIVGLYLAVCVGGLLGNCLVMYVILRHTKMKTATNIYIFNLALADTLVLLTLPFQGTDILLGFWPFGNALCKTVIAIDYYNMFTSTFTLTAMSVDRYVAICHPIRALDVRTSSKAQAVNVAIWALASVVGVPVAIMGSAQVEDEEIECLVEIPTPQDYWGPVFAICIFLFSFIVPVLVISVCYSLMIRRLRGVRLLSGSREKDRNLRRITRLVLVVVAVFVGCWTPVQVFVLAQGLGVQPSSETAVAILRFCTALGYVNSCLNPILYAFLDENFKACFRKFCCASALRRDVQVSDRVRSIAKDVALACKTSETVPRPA
Method: To assay the function of a test compound, a HEK-293 cell line that over-expresses the ORL-1 receptor and the Gqi5 G protein (Molecular Devices) were employed. By using a calcium flux assay, agonism and antagonism through the ORL-1 receptor were detectable.
The HEK-293 cells were plated two days prior to assay. For assay, cells in 50 μl of medium were incubated with 50 μl of dye (Molecular Devices) for 1 hour at 37° C. 100 μl of test compound diluted in Hank's Buffered Salt Solution (HBSS) at 2-fold the indicated final concentration was added and time points taken every 1 second for 1 minute and every 3 seconds for an additional 1 minute using FLIPR384 (Molecular Devices). 50 μl of nociceptin (Neosystems, SA) at 5-fold the indicated final concentration was then added and additional time points were recorded every 1 second for 1 minute and every 3 seconds for an additional 1 minute.
The resulting data were processed using Microsoft Excel 6.0 and EC50 values were determined using GraphPad Prism 3.0. For agonists, the EC50 was determined from the initial calcium signal obtained after addition of the test compound. For compounds that behaved as antagonists, the percent inhibition or IC50 of the signal resulting from the subsequent addition of the nociceptin peptide was calculated.

[3] = biological target: Delta (δ) opioid receptor (Homo sapiens, UniProt P41143); assay: Filtration binding assay, delta opioid receptor (DPDPE-H3 ligand)
Chain of Delta (δ) opioid receptor (P41143 whole entry): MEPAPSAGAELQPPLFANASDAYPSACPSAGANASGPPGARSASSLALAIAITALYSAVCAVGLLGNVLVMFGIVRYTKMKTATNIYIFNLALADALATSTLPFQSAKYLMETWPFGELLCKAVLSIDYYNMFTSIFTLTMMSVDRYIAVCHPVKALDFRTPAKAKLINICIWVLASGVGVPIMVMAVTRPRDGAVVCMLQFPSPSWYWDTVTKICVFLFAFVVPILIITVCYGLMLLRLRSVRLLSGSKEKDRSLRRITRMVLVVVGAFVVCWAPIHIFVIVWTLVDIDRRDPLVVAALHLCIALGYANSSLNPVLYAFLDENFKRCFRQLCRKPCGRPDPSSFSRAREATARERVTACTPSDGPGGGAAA

[4] = 1 D4 cell line membrane, Damgo-H3 ligand, calculated mean where tested more than once, read-out: Mu (μ) IC50
[5] = 2C2 cell line membrane, U69593-H3 ligand, calculated mean where tested more than once, read-out: Kappa (κ) IC50
[6] = 2D4 cell line membrane, DPDPE-H3 ligand, calculated mean where tested more than once, read-out: Delta (δ) IC50

Chain of Mu (μ) opioid receptor (P35372 whole entry): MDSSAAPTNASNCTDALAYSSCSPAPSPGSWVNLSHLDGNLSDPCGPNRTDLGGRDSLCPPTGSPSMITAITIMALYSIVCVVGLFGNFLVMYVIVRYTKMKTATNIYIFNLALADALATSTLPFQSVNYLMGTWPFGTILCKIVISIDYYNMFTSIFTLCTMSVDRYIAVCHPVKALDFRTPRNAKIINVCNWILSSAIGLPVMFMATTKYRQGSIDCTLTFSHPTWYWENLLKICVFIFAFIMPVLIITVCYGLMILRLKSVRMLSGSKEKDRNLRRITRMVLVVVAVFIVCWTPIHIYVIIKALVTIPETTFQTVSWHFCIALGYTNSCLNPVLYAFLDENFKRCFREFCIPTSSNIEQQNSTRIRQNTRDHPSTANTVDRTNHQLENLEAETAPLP
Chain of human nociceptin receptor (ORL-1) (P41146 whole entry): as the sequence (P41146 whole entry) above

| SMILES | IC50 [1] [nM] | IC50 (Mu (μ) opioid receptor; [4]) [nM] | IC50 [2, 5] [nM] | other results |
| --- | --- | --- | --- | --- |
| COc1ccc2c(c1)N(CC1CC1)C(=O)C21CCN(CC2CCCCCCC2)CC1 [Compound 5, 1-(cyclopropyl-methyl)-5-(cyclooctyl-methyl)-10-methoxy-spiro[indoline-3,4′-piperidin]-2-one] |  |  |  | IC50 (Mu (μ) opioid receptor): > 10000 nM |
| COC(=O)CN1C(=O)C2(CCN(Cc3ccc4ccccc4c3)CC2)c2ccccc21 [Compound 32] | 250 |  |  |  |
| COC(=O)CN1C(=O)C2(CCN(Cc3cccc4ccccc34)CC2)c2ccccc21 [Compound 43] | 470 |  |  |  |
| CCCCCCN1CCC2(CC1)C(=O)N(CC(=O)OC)c1ccccc12 [Compound 26] | 820 |  |  |  |
| O=C1N(CC2CO2)c2ccccc2C12CCN(CC1CCCCCCC1)CC2 (stereo not shown) [Compound 60] | 83 | 840 | 480 | Inhibitor (ORL-1 receptor): no; % Inhibition (100 nM Nociceptin) (ORL-1 receptor): 17 ± 3% |
| CN1C(=O)C2(CCN(CC3CCCCCCC3)CC2)c2cc(C(F)(F)F)ccc21 [Compound 8, 1-methyl-5-(cyclooctyl-methyl)-9-trifluoromethyl-spiro[indoline-3,4′-piperidin]-2-one] | 600 | 5310 |  | IC50 [3]: > 10000 nM |
| CN1C(=O)C2(CCN(CC3CCCCCCC3)CC2)c2cc(F)ccc21 [Compound 9, 1-methyl-5-(cyclooctyl-methyl)-9-fluoro-spiro[indoline-3,4′-piperidin]-2-one] | 23 | 1010 | 250 | IC50 [3]: > 10000 nM; Inhibitor (ORL-1 receptor): undetermined; % Inhibition (100 nM Nociceptin) (ORL-1 receptor): 41 ± 26% |
| COC(=O)CN1C(=O)C2(CCN(Cc3ccc(Cl)cc3)CC2)c2ccccc21 [Compound 39] | 710 |  |  |  |
| COc1ccc2c(c1)N(C)C(=O)C21CCN(CC2CCCCCCC2)CC1 [Compound 35, 1-methyl-5-(cyclooctyl-methyl)-10-methoxy-spiro[indoline-3,4′-piperidin]-2-one] | 2400 | 1610 | 1220 |  |
| CN1C(=O)C2(CCN(CC3CCCCCCC3)CC2)c2ccc(O)cc21 [Compound 19] | 2680 | > 10000 | 120 | IC50 [3, 6]: 300 nM |
| COC(=O)CN1C(=O)C2(CCN(C3Cc4cccc5cccc3c45)CC2)c2ccccc21 (stereo not shown) [Compound 30] |  | > 10000 | 4410 | IC50 [3, 6]: > 10000 nM |
| CN1C(=O)C2(CCN(C(=O)OC(C)(C)C)CC2)c2cc(C(F)(F)F)ccc21 [Compound 14, 1-methyl-5-tert-butoxycarbonyl-9-trifluoromethyl-spiro[indoline-3,4′-piperidin]-2-one] | > 10000 |  |  |  |
| O=C1N(CCO)c2ccccc2C12CCN(CC1CCCCCCC1)CC2 [Compound 20] | 290 | 1690 |  |  |
| O=C1N(CC2CCCCC2)c2ccccc2C12CCN(C1Cc3cccc4cccc1c34)CC2 (stereo not shown) [Compound 4] |  | > 10000 |  | IC50 [3, 6]: > 10000 nM |
| CC(C)c1ccc2c(c1)C1(CCN(CC3CCCCCCC3)CC1)C(=O)N2C [Compound 7, 1-methyl-5-(cyclooctyl-methyl)-9-isopropyl-spiro[indoline-3,4′-piperidin]-2-one] | 7400 |  |  | IC50 (Mu (μ) opioid receptor; read-out: Mu (μ) IC50): 980 nM; IC50 ([2]; read-out: Kappa (κ) IC50): 97 nM |
| COC(=O)CN1C(=O)C2(CCN(CC3CCCCC3)CC2)c2ccccc21 [Compound 24] | 800 |  |  | Inhibitor (ORL-1 receptor): yes; % Inhibition (100 nM Nociceptin) (ORL-1 receptor): 32 ± 2% |
| CC(=O)N[C@@H](CSCC(O)CN1C(=O)C2(CCN(CC3CCCCCCC3)CC2)c2ccccc21)C(=O)O (stereo partly shown) [Compound 16] |  | 360 | 360 | IC50 [3, 6]: > 10000 nM |
| COC(=O)CN1C(=O)C2(CCN(C3CCC4CCCCC4C3)CC2)c2ccccc21 (stereo not shown) [Compound 15] | 900 |  |  |  |
| CCN(Cc1ccc(C)cc1)CC(O)CN1C(=O)C2(CCN(CC3CCCCCCC3)CC2)c2ccccc21 (stereo not shown) [Compound 62] | 320 | 620 | 220 |  |

| SMILES | IC50 [1] [nM] | IC50 (Mu (μ) opioid receptor; [4]) [nM] | IC50 [2, 5] [nM] | other results |
| --- | --- | --- | --- | --- |
| COC(=O)CN1C(=O)C2(CCN(CC3CCCCCCC3)CC2)c2ccccc21 [Compound 42] | 100 | 3550 | 640 |  |
| COC(=O)CN1C(=O)C2(CCN(CC3CCCCCC3)CC2)c2ccccc21 [Compound 1] | 510 |  |  | Inhibitor (ORL-1 receptor): no |
| COC(=O)CN1C(=O)C2(CCN(Cc3cccc(C(F)(F)F)c3)CC2)c2ccccc21 [Compound 12] | 140 |  |  |  |
| COC(=O)CN1C(=O)C2(CCN(CC3CC3)CC2)c2ccccc21 [Compound 23] | 3600 |  |  |  |
| CCN1CC2(CCN(CC3CCCCCCC3)CC2)c2ccc(OC)cc21 [Compound 63] |  | > 10000 | > 10000 | IC50 [3, 6]: > 10000 nM |
| O=C1Nc2ccccc2C12CCN(CC1CCCCCCC1)CC2 [Compound 18] | 380 | 1110 | 430 | Inhibitor (ORL-1 receptor): yes; % Inhibition (100 nM Nociceptin) (ORL-1 receptor): 45 ± 9% |
| CCN1C(=O)C2(CCN(CC3CCCCCCC3)CC2)c2ccc(OC)cc21 [Compound 55, 1-ethyl-5-(cyclooctyl-methyl)-10-methoxy-spiro[indoline-3,4′-piperidin]-2-one] | 2750 | 1460 |  |  |
| CC(=O)OCCN1C(=O)C2(CCN(CC3CCCCCCC3)CC2)c2ccccc21 [Compound 46] | 180 | 1410 | 2640 | Inhibitor (ORL-1 receptor): no |
| CN1C(=O)C2(CCN(CC3CCCCCCC3)CC2)c2ccccc21 [Compound 45] | 32 | 1300 | 930 | Inhibitor (ORL-1 receptor): no |
| COC(=O)CN1C(=O)C2(CCN(CC3CCCCCCCCCCC3)CC2)c2ccccc21 [Compound 27] | 1120 |  |  |  |
| Cc1cccc2c1C1(CCN(CC3CCCCCCC3)CC1)C(=O)N2C [Compound 59, 1-methyl-5-(cyclooctyl-methyl)-8-methyl-spiro[indoline-3,4′-piperidin]-2-one] | 37 | 480 | 560 | Inhibitor (ORL-1 receptor): yes; % Inhibition (100 nM Nociceptin) (ORL-1 receptor): 81 ± 6% |
| O=C(O)CN1C(=O)C2(CCN(CC3CCCCCCC3)CC2)c2ccccc21 [Compound 41] |  |  |  | IC50 [3]: > 10000 nM; IC50 (Mu (μ) opioid receptor): > 10000 nM; IC50 [2]: > 10000 nM |
| Cc1ccc2c(c1)C1(CCN(CC3CCCCCCC3)CC1)C(=O)N2C [Compound 57, 1-methyl-5-(cyclooctyl-methyl)-9-methyl-spiro[indoline-3,4′-piperidin]-2-one] | 450 | 4280 | 540 | IC50 [3, 6]: > 10000 nM; Inhibitor (ORL-1 receptor): no |
| CCCN1C(=O)C2(CCN(CC3CCCCCCC3)CC2)c2cc(C(C)C)ccc21 [Compound 17] |  | > 10000 | 4000 | IC50 [3, 6]: 5700 nM |
| COC(=O)CN1C(=O)C2(CCN(CC3CCC(C(C)(C)C)CC3)CC2)c2ccccc21 (stereo not shown) [Compound 29] | 100 |  |  |  |
| COC(=O)CN1C(=O)C2(CCN(Cc3ccc(C(F)(F)F)cc3)CC2)c2ccccc21 [Compound 11] | 880 |  |  |  |
| O=C1N(CC(O)CNCCN2CCOCC2)c2ccccc2C12CCN(CC1CCCCCCC1)CC2 (stereo not shown) [Compound 61] | 120 |  |  | IC50 (Mu (μ) opioid receptor; read-out: Mu (μ) IC50): 500 nM; IC50 ([2]; read-out: Kappa (κ) IC50): 100 nM |
| O=C1N(Cc2ccccc2)c2ccccc2C12CCN(CC1CCCCCCC1)CC2 [Compound 44] | 120 | 960 | 1100 |  |
| Cc1ccc2c(c1)N(C)C(=O)C21CCN(CC2CCCCCCC2)CC1 [Compound 58, 1-methyl-5-(cyclooctyl-methyl)-10-methyl-spiro[indoline-3,4′-piperidin]-2-one] | 150 | 6470 | 2380 | IC50 [3, 6]: 8800 nM; Inhibitor (ORL-1 receptor): undetermined; % Inhibition (100 nM Nociceptin) (ORL-1 receptor): 48 ± 26% |

— patent US7655670B2 (Janssen Pharmaceutica N.V., priority 2005, dated 2010)
